According to US4213994A, “Imidazolyl-(2)-carbinols having hypolipidemic action and process for preparing them” (Hoechst Aktiengesellschaft, priority 1971, dated 1980):
Like-named read-outs stand apart in the source and are kept apart here.

How the values were obtained:
[1] = acute toxicity, LD50 determined on the mouse upon oral administration; settings: in vivo
From the text: While having an extremely low acute toxicity (cf. LD50 -values in Table I), the imidazolyl-(2)-carbinols reduce the lipid level in the serum and reduce artificially produced hyperlipidemia.
The values in brackets of the first column designate the LD50values
(§1) in g/kg, determined on the mouse upon oral administration. The values

[2] = tested on: serum lipid level; assay: Standard test on a male rat with normal serum lipid level (hypolipidemic action, 8 peroral administrations); type: in vivo; settings: for change in vivo at 30 mg/kg / change in vivo at 100 mg/kg / change in vivo at 10 mg/kg: Rattus norvegicus, po, 192 h
Description: 1. Standard test on a male rat with normal serum lipid level
The period of time used for the experiment was 8 days. Administration was effected once daily with the aid of an oesophageal sound with doses of 100, 30 and 10 mg/kg, respectively. In general, blood was withdrawn prior to and after the treatment and the concentration of cholesterin was determined in the serum according to the method described by Lauber and Richterich and that of triglycerides according to the method described by Eggstein and Kreutz.
as §1
before the oblique stroke of the other columns denote the percentual
change of the posterior value (value after the treatment) referred to the
anterior value (starting value before the treatment) of the group of
preparations, the anterior value being 100%; the values behind the obliqu
stroke indicate the percentual change of the posterior value of the group
treated with reference to the posterior value (= 100%) of a placebo group

[3] = tested on: triton-hyperlipidemia; assay: Triton-Hyperlipidemia of the male rat (inhibition of triton-hyperlipidemia); type: in vivo; settings: 4-days pre-treatment; for Inhibition of triton-hyperlipidemia, Serum-cholesterin / Inhibition of triton-hyperlipidemia, Serum-triglyceride: 300 mg/kg Triton WR 1339 i.p., Triton control = 100%
Description: 2. Triton-Hyperlipidemia of the male rat
The influence of a 4-days pre-treatment with the compound of Example 1 on the formation of hyperlipidemia produced by i.p. application of 300 mg/kg of Triton ® WR 1339 was tested in comparison to a control group (=100%) which had only been treated with Triton.

[4] = tested on: dietetic hypercholesterinemia; assay: Dietetic hypercholesterinemia of the male rat (inhibition of dietetic hypercholesterinemia); type: in vivo; settings: 100 mg/kg p.o. once daily
Description: 3. Dietetic hypercholesterinemia of the male rat
Hypercholesterinemia was produced by the addition of 2% of cholesterin and 20% of coconut fat (Palmin) to the normal fodder. The rise of the cholesterin level was determined by comparison with a control group (=100%) which had been given normal fodder only. (Line 1 in Table III). The animals of the preparation group obtained at the same time of the begin of the diet daily once 100 mg/kg p.o. of the compound of Example 1. […]

[5] = solubility in the usual solvents; type: physicochemical
[6] = 10 mg/kg/day p.o., 8 administrations
[7] = 30 mg/kg/day p.o., 8 administrations, value before the oblique stroke (anterior value = 100%), read-out: % change of Serum-Cholesterin, after treatment vs starting value before treatment
[8] = 30 mg/kg/day p.o., 8 administrations, value before the oblique stroke (anterior value = 100%), read-out: % change of Serum-triglycerides, after treatment vs starting value before treatment
[9] = 30 mg/kg/day p.o., 8 administrations, value behind the oblique stroke (placebo posterior value = 100%), read-out: % change of Serum-Cholesterin, treated group vs placebo group
[10] = 30 mg/kg/day p.o., 8 administrations, value behind the oblique stroke (placebo posterior value = 100%), read-out: % change of Serum-triglycerides, treated group vs placebo group
[11] = 100 mg/kg/day p.o., 8 administrations, value before the oblique stroke (anterior value = 100%), read-out: % change of Serum-Cholesterin, after treatment vs starting value before treatment
[12] = 100 mg/kg/day p.o., 8 administrations, value before the oblique stroke (anterior value = 100%), read-out: % change of Serum-triglycerides, after treatment vs starting value before treatment
[13] = 100 mg/kg/day p.o., 8 administrations, value behind the oblique stroke (placebo posterior value = 100%), read-out: % change of Serum-Cholesterin, treated group vs placebo group
[14] = 100 mg/kg/day p.o., 8 administrations, value behind the oblique stroke (placebo posterior value = 100%), read-out: % change of Serum-triglycerides, treated group vs placebo group
[15] = read-out: % change of Serum-Cholesterin, after treatment vs starting value before treatment
[16] = read-out: % change of Serum-triglycerides, after treatment vs starting value before treatment
[17] = read-out: % change of Serum-triglycerides, treated group vs placebo group

## CCOC(=O)C(C)(C)Oc1ccc(Cl)cc1 [Clofibrate, 2-(p-chlorophenoxy)-isobutyric acid ethyl ester, reference compound]
[1]
  LD50: 2000 to 2500 mg/kg
[2]; [6]
  change of Serum-Cholesterin (in words): ineffective
  change of Serum-triglycerides (in words): ineffective
[2]; [7]
  change in vivo at 30 mg/kg: -5%
[2]; [8]
  change in vivo at 30 mg/kg: -4%
[2]; [9]
  change in vivo at 30 mg/kg: -8%
[2]; [10]
  change in vivo at 30 mg/kg: -7%
[2]; [11]
  change in vivo at 100 mg/kg: -22%
[2]; [12]
  change in vivo at 100 mg/kg: -30%
[2]; [13]
  change in vivo at 100 mg/kg: -13%
[2]; [14]
  change in vivo at 100 mg/kg: -30%
[3]; 10 mg/kg/day p.o.
  Inhibition of triton-hyperlipidemia, Serum-cholesterin (in words): ineffective
  Inhibition of triton-hyperlipidemia, Serum-triglyceride (in words): ineffective
[3]; 100 mg/kg/day p.o.
  Inhibition of triton-hyperlipidemia, Serum-cholesterin: -29%
  Inhibition of triton-hyperlipidemia, Serum-triglyceride: -16%

## OC(c1ccccc1)(c1nccn1Cc1ccccc1)c1nccn1Cc1ccccc1 [Example 1, Bis-[1-benzylimidazolyl-(2)]-phenyl-carbinole]
[4]; after 8 days
  % change of the total cholesterin content in the serum, inhibition due to preparation (diet = 100%): -23%
[4]; after 20 days
  % change of the total cholesterin content in the serum, inhibition due to preparation (diet = 100%): -19%
[4]; after 33 days
  % change of the total cholesterin content in the serum, inhibition due to preparation (diet = 100%): -9%
[1]
  LD50: > 4000 mg/kg
[2]; 10 mg/kg/day p.o., 8 administrations, value before the oblique stroke (anterior value = 100%), read-out: % change of Serum-Cholesterin, after treatment vs starting value before treatment
  change in vivo at 10 mg/kg: -10%
[2]; 10 mg/kg/day p.o., 8 administrations, value behind the oblique stroke (placebo posterior value = 100%), read-out: % change of Serum-Cholesterin, treated group vs placebo group
  change in vivo at 10 mg/kg: -12%
[2]; 10 mg/kg/day p.o., 8 administrations, value behind the oblique stroke (placebo posterior value = 100%), read-out: % change of Serum-triglycerides, treated group vs placebo group
  change in vivo at 10 mg/kg: -13%
[2]; [7]
  change in vivo at 30 mg/kg: -33%
[2]; [8]
  change in vivo at 30 mg/kg: -25%
[2]; [9]
  change in vivo at 30 mg/kg: -10%
[2]; [10]
  change in vivo at 30 mg/kg: -10%
[3]; 10 mg/kg/day p.o.
  Inhibition of triton-hyperlipidemia, Serum-cholesterin: -31%
  Inhibition of triton-hyperlipidemia, Serum-triglyceride: -40%
[3]; 100 mg/kg/day p.o.
  Inhibition of triton-hyperlipidemia, Serum-cholesterin: -28%
  Inhibition of triton-hyperlipidemia, Serum-triglyceride: -35%

## CC(O)c1nccn1Cc1ccccc1 (stereo not drawn) [Example 2, 1-[1-benzylimidazolyl-(2)]-ethanol]
[1]
  LD50: 1120 mg/kg
[2]; [11]
  change in vivo at 100 mg/kg: -24%
[2]; [13]
  change in vivo at 100 mg/kg: -3%
[2]; [14]
  change in vivo at 100 mg/kg: -4%

## CC(C)n1ccnc1C(O)C(Cl)(Cl)Cl (stereo not drawn) [Example 3, 1-[1-Isopropylimidazolyl-(2)]-2,2,2-trichloroethanol]
[1]
  LD50: > 4000 mg/kg
[2]; [15]
  change in vivo at 30 mg/kg: -16%
  change in vivo at 100 mg/kg: -6%
[2]; read-out: % change of Serum-Cholesterin, treated group vs placebo group
  change in vivo at 100 mg/kg: -18%
[2]; [16]
  change in vivo at 30 mg/kg: -21%
  change in vivo at 100 mg/kg: -57%
[2]; [17]
  change in vivo at 30 mg/kg: -6%
  change in vivo at 100 mg/kg: -30%

## OC1(c2nccn2Cc2ccccc2)c2ccccc2-c2ccccc21 [Example 4, 9-[1-Benzylimidazolyl-(2)]-fluorene-9-ol]
[1]
  LD50: > 4000 mg/kg
[2]; [7]
  change in vivo at 30 mg/kg: -11%
[2]; [8]
  change in vivo at 30 mg/kg: -25%
[2]; [11]
  change in vivo at 100 mg/kg: -16%
[2]; [12]
  change in vivo at 100 mg/kg: -48%
[2]; [13]
  change in vivo at 100 mg/kg: -21%
[2]; [14]
  change in vivo at 100 mg/kg: -37%

## Cn1ccnc1C(O)(c1ccccc1)c1ccc(Cl)cc1Cl (stereo not drawn) [Example 5, Phenyl-(2,4-dichlorophenyl)-[1-methylimidazolyl-(2)]-carbinol]
[1]
  LD50: > 4000 mg/kg
[2]; [7]
  change in vivo at 30 mg/kg: -23%
[2]; [8]
  change in vivo at 30 mg/kg: -1%
[2]; [9]
  change in vivo at 30 mg/kg: -9%
[2]; [10]
  change in vivo at 30 mg/kg: -17%
[2]; [11]
  change in vivo at 100 mg/kg: -19%
[2]; [12]
  change in vivo at 100 mg/kg: -37%
[2]; [13]
  change in vivo at 100 mg/kg: -32%
[2]; [14]
  change in vivo at 100 mg/kg: -35%

## Cn1c(C(O)(c2ccccc2)c2ccc(Cl)cc2Cl)nc2ccccc21 (stereo not drawn) [Example 6, Phenyl-(2,4-dichlorophenyl)-[1-methylbenzimidazolyl-(2)]-carbinol]
[1]
  LD50: > 4000 mg/kg
[2]; [7]
  change in vivo at 30 mg/kg: -20%
[2]; [8]
  change in vivo at 30 mg/kg: -19%
[2]; [10]
  change in vivo at 30 mg/kg: -29%
[2]; [11]
  change in vivo at 100 mg/kg: -12%
[2]; [12]
  change in vivo at 100 mg/kg: -46%
[2]; [13]
  change in vivo at 100 mg/kg: -25%
[2]; [14]
  change in vivo at 100 mg/kg: -35%

## OC(c1ccccc1)(c1ncc[nH]1)c1ncc[nH]1 [Example 7, Bis-[imidazolyl-(2)]-phenyl-carbinol]
[1]
  LD50: > 4000 mg/kg
[5]
  solubility (in words): not soluble or poorly soluble only in the usual solvents
[2]; [11]
  change in vivo at 100 mg/kg: -7%
[2]; [12]
  change in vivo at 100 mg/kg: -18%
[2]; [14]
  change in vivo at 100 mg/kg: -18%

## CC(C)n1ccnc1C(C)(O)c1ccc(Cl)cc1 (stereo not drawn) [Example 8, Methyl-(p-chlorophenyl)-[1-isopropylimidazolyl-(2)]-carbinol]
[1]
  LD50: > 4000 mg/kg
[2]; [11]
  change in vivo at 100 mg/kg: -14%
[2]; [12]
  change in vivo at 100 mg/kg: -39%
[2]; [14]
  change in vivo at 100 mg/kg: -21%

## Cn1c(C(O)c2nccn2Cc2ccccc2)nc2ccccc21 (stereo not drawn) [Example 9, [1-Benzylimidazolyl-(2)]-[1-methylbenzimidazolyl-(2)]-carbinol]
[1]
  LD50: > 4000 mg/kg
[2]; [11]
  change in vivo at 100 mg/kg: -21%
[2]; [12]
  change in vivo at 100 mg/kg: -40%
[2]; [13]
  change in vivo at 100 mg/kg: -11%
[2]; [14]
  change in vivo at 100 mg/kg: -24%

## CC(O)(c1ccc(OC(F)(F)C(F)Cl)cc1)c1nccn1Cc1ccccc1 (stereo not drawn) [Example 10, 1-[p-(1,1,2-trifluoro-2-chloro-ethoxy)-phenyl]-1-[1-benzylimidazolyl-(2)]-ethanol]
[1]
  LD50: > 4000 mg/kg
[2]; [11]
  change in vivo at 100 mg/kg: -36%
[2]; [12]
  change in vivo at 100 mg/kg: -56%
[2]; [13]
  change in vivo at 100 mg/kg: -21%
[2]; [14]
  change in vivo at 100 mg/kg: -26%

## COc1ccc(C(O)c2nccn2-c2ccccc2)cc1OC (stereo not drawn) [Example 11, (3,4-Dimethoxy-phenyl)-[1-phenylimidazolyl-(2)]-carbinol]
[1]
  LD50: > 4000 mg/kg
[2]; [11]
  change in vivo at 100 mg/kg: -24%
[2]; [12]
  change in vivo at 100 mg/kg: -32%
[2]; [13]
  change in vivo at 100 mg/kg: -3%
[2]; [14]
  change in vivo at 100 mg/kg: -21%
